Assays:
TOP I (Topoisomerase I) [1] = target: T1, TOP I (Topoisomerase I) (Homo sapiens, UniProt P11387); assay: TOP I mediated supercoiled DNA relaxation assay; type: biochemical; conditions: five different concentrations; TopoGEN TG2005H, TG-2000H-1
T1 construct: purchased TopoGEN TG2005H
T1 sequence (P11387 1-765): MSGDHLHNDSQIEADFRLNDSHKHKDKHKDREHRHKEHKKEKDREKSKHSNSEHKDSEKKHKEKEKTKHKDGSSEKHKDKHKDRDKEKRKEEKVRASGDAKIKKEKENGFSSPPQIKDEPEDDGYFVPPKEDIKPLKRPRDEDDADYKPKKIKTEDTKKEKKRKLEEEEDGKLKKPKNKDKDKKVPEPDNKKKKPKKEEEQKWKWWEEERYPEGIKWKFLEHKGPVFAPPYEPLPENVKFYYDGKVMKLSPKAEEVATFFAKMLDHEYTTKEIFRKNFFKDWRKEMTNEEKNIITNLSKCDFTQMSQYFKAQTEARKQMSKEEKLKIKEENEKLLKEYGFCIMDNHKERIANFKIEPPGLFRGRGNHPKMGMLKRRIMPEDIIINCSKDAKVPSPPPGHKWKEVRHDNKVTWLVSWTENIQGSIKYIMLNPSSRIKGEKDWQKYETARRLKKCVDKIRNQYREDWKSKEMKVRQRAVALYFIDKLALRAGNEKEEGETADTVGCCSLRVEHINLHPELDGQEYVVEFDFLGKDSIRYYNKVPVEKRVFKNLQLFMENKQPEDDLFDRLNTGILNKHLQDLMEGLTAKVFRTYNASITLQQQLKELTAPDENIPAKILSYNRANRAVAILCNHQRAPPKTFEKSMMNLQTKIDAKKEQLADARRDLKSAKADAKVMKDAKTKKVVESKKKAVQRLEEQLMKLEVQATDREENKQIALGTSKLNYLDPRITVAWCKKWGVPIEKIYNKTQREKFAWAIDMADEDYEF

HCT-15 = type: cell-based
CCRF-CEM = type: cell-based
SF-295 = type: cell-based
[2] = target: T2, TOP II (Topoisomerase II) (Homo sapiens, UniProt P11388); assay: TOP II-catalyzed relaxation of plasmid DNA assay; type: biochemical
T2 construct: purchased TopoGEN TG-2000H-1
Protocol: We also performed TOP II-catalyzed relaxation of plasmid DNA assays (FIG. 5-7) to evaluate if compounds could inhibit TOP II. […] The IC50 value of compounds 7, N7, N8, N14, N15, N18, and N19 were about 10, 10, 1, 10, 5, 1, and 1 μM, respectively (detect by TopoGEN TG2005H, TG-2000H-1).

OVCAR-4 = type: cell-based
BT-549 = type: cell-based
UO-31 = type: cell-based
SK-MEL-2 = type: cell-based; conditions: SK-Mel-2, five dose
UACC-257 = type: cell-based
IGROV1 = type: cell-based
SF-539 = type: cell-based
HS 578T = type: cell-based
TOP I (Topoisomerase I) [3] = target: T1, TOP I (Topoisomerase I); assay: TOP I mediated supercoiled DNA relaxation assay; type: biochemical; conditions: primary assay at 25 and/or 50 μM
Protocol: According to the cell cytotoxicity, compounds 5, 7, 8, 16, 19, N2, N7, N8, N9, N14-N19, and N25 were also selected for primary TOP I and II activities assays at 25 and/or 50 μM (FIG. 2-4).

DU-145 = type: cell-based
CAKI-1 = type: cell-based
OVCAR-5 = type: cell-based
HOP-92 = type: cell-based; conditions: HOP-92, five dose
SN12C = type: cell-based
OVCAR-3 = type: cell-based; conditions: Ovarian cancer; 10^−5 molar; 48 hours; SRB
SNB-75 = type: cell-based
A549/ATCC = type: cell-based
HCC-2998 = type: cell-based
[4] = Colon cancer, 10^−5 molar, 48 hours, SRB
[5] = Homo sapiens, HCT-15, five dose
[6] = CNS cancer, 10^−5 molar, 48 hours, SRB
[7] = Ovarian cancer, 10^−5 molar, 48 hours, SRB
[8] = Breast cancer, 10^−5 molar, 48 hours, SRB
[9] = Renal cancer, 10^−5 molar, 48 hours, SRB
[10] = Homo sapiens, SF-539, five dose
[11] = Homo sapiens, SNB-75, five dose
[12] = Homo sapiens, A549/ATCC, five dose
[13] = Homo sapiens, HCC-2998, five dose

T2 sequence (P11388 whole entry): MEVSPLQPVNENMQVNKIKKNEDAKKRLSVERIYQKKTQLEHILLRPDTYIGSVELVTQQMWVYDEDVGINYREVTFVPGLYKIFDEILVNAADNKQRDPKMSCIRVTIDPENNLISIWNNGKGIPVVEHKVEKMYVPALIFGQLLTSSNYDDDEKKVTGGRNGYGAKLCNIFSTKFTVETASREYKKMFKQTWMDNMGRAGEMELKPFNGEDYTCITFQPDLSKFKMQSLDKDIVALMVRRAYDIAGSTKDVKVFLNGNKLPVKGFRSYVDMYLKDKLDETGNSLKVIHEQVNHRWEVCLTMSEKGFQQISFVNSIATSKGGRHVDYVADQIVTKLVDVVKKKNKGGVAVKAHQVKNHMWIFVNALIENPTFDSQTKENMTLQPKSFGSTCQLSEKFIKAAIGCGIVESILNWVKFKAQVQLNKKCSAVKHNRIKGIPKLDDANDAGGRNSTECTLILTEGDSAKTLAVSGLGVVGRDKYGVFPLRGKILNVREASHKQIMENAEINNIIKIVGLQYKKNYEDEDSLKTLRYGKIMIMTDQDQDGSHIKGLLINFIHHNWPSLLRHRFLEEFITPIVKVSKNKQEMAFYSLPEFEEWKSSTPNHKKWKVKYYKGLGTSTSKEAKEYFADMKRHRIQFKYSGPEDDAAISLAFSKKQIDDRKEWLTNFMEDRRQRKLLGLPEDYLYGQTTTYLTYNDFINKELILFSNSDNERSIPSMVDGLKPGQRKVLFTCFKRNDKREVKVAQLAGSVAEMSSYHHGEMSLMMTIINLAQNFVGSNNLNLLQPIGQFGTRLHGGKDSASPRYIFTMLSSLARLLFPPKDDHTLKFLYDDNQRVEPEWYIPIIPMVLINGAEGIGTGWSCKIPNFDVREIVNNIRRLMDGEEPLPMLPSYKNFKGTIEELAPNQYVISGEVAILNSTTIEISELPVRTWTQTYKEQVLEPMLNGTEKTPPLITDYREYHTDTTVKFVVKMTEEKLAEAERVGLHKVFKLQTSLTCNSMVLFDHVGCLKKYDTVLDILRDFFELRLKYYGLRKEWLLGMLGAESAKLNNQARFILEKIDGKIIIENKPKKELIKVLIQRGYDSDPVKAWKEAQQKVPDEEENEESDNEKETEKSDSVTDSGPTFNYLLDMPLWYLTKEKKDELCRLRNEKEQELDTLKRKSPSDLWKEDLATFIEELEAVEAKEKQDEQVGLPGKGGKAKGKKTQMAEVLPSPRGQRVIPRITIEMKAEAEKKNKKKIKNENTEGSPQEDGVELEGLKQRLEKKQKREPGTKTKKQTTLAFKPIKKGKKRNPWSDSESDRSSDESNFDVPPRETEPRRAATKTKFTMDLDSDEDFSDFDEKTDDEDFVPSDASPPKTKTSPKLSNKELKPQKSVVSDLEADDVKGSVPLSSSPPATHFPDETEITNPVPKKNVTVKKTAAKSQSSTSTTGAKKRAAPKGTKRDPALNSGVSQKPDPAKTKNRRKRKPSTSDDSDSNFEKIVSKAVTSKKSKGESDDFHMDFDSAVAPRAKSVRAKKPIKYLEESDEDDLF

NCCNc1nc2ccccc2c2c(=O)c3cc(Cl)ccc3sc12 [Compound N14, 6-((2-Aminoethyl)amino)-10-chloro-12H-thiochromeno[2,3-c]quinolin-12-one]
IC50 (TOP I (Topoisomerase I) [1]): ~1 µM | Growth percent HCT-15 (HCT-15; [4]): −45.92% | TGI (HCT-15; HCT-15, five dose): 3.12 µM | GI50 (HCT-15; [5]): 1.58 µM | LC50 (HCT-15; [5]): 6.16 µM | TGI (CCRF-CEM; CCRF-CEM, five dose): 3.65 µM | GI50 (CCRF-CEM; Homo sapiens, CCRF-CEM, five dose): 1.75 µM | CC50 (CCRF-CEM; Homo sapiens, CCRF-CEM, five dose, read-out: LC50 (the source's name)): 7.64 µM | Growth percent CCRF-CEM (CCRF-CEM; Leukemia, 10^−5 molar, 48 hours, SRB): −39.61% | Growth percent SF-295 (SF-295; [6]): −74.29% | GI50 (SF-295; Homo sapiens, SF-295, five dose): 1.79 µM | TGI (SF-295; SF-295, five dose): 3.63 µM | IC50 ([2]; five different concentrations, TopoGEN TG2005H, TG-2000H-1, read-out: IC50 value, TOP II mediated supercoiled DNA relaxation): ~10 µM | inhibitory effect in TOP II relaxation assay compared with VP-16 ([2]; primary assay at 25 and/or 50 μM): more potent inhibitory effects than the positive agent VP-16 | GI50 (OVCAR-4; Homo sapiens, OVCAR-4, five dose): 1.52 µM | CC50 (OVCAR-4; Homo sapiens, OVCAR-4, five dose, read-out: LC50 (the source's name)): 6.54 µM | TGI (OVCAR-4; OVCAR-4, five dose): 3.15 µM | Growth percent OVCAR-4 (OVCAR-4; [7]): −20.15% | TGI (BT-549; BT-549, five dose): 5.35 µM | Growth percent BT-549 (BT-549; [8]): 78.49% | GI50 (BT-549; Homo sapiens, BT-549, five dose): 2.15 µM | CC50 (BT-549; Homo sapiens, BT-549, five dose, read-out: LC50 (the source's name)): 62 µM | GI50 (UO-31; Homo sapiens, UO-31, five dose): 1.29 µM | CC50 (UO-31; Homo sapiens, UO-31, five dose, read-out: LC50 (the source's name)): 5.96 µM | Growth percent UO-31 (UO-31; [9]): −92.77% | TGI (UO-31; UO-31, five dose): 2.78 µM | GI50 (SK-MEL-2; Homo sapiens): 1.98 µM | LC50 (SK-MEL-2; Homo sapiens): 7.87 µM | TGI (SK-MEL-2): 3.95 µM | GI50 (UACC-257; Homo sapiens, UACC-257, five dose): 1.9 µM | CC50 (UACC-257; Homo sapiens, UACC-257, five dose, read-out: LC50 (the source's name)): 6.7 µM | Growth percent UACC-257 (UACC-257; Melanoma, 10^−5 molar, 48 hours, SRB): −67.35% | TGI (UACC-257; UACC-257, five dose): 3.56 µM | GI50 (IGROV1; Homo sapiens, IGROV-1, IGROV1, five dose): 1.61 µM | TGI (IGROV1; IGROV1, five dose): 3.45 µM | Growth percent IGROV1 (IGROV1; [7]): −77.31% | Growth percent SF-539 (SF-539; [6]): 2.13% | GI50 (SF-539; [10]): 1.57 µM | LC50 (SF-539; [10]): 5.52 µM | TGI (SF-539; SF-539, five dose): 2.95 µM | Growth percent HS 578T (HS 578T; [8]): 50.82% | TGI (HS 578T; HS 578T, five dose): 3.90 µM | GI50 (HS 578T; Homo sapiens, HS 578T, five dose): 1.69 µM | inhibitory effect in TOP I activity assay compared with CPT (TOP I (Topoisomerase I) [3]): more potent inhibitory effects than CPT | TGI (DU-145; DU-145, five dose): 3.20 µM | GI50 (DU-145; Homo sapiens, DU-145, five dose): 1.81 µM | CC50 (DU-145; Homo sapiens, DU-145, five dose, read-out: LC50 (the source's name)): 5.66 µM | Growth percent DU-145 (DU-145; Prostate cancer, 10^−5 molar, 48 hours, SRB): −96.35% | TGI (CAKI-1; CAKI-1, five dose): 3.27 µM | GI50 (CAKI-1; Homo sapiens, CAKI-1, five dose): 1.56 µM | Growth percent CAKI-1 (CAKI-1; [9]): −75.30% | GI50 (OVCAR-5; Homo sapiens, OVCAR-5, five dose): 1.46 µM | CC50 (OVCAR-5; Homo sapiens, OVCAR-5, five dose, read-out: LC50 (the source's name)): 5.66 µM | TGI (OVCAR-5; OVCAR-5, five dose): 2.88 µM | Growth percent OVCAR-5 (OVCAR-5; [7]): −52.16% | TGI (HOP-92): 3.05 µM | GI50 (HOP-92; Homo sapiens): 1.03 µM | LC50 (HOP-92; Homo sapiens): 9.04 µM | GI50 (SN12C; Homo sapiens, SN12C, five dose): 1.45 µM | Growth percent SN12C (SN12C; [9]): −93.98% | TGI (SN12C; SN12C, five dose): 3.02 µM | Growth percent OVCAR-3 (OVCAR-3): −84.15% | Growth percent SNB-75 (SNB-75; [6]): −43.13% | GI50 (SNB-75; [11]): 1.09 µM | LC50 (SNB-75; [11]): 4.9 µM | TGI (SNB-75; SNB-75, five dose): 2.31 µM | TGI (A549/ATCC; A549/ATCC, five dose): 3.50 µM | GI50 (A549/ATCC; [12]): 1.83 µM | LC50 (A549/ATCC; [12]): 6.68 µM | Growth percent A549/ATCC (A549/ATCC; Non-small cell lung cancer, 10^−5 molar, 48 hours, SRB): −88.76% | Growth percent HCC-2998 (HCC-2998; [4]): −90.43% | TGI (HCC-2998; HCC-2998, five dose): 4.06 µM | GI50 (HCC-2998; [13]): 2.03 µM | LC50 (HCC-2998; [13]): 8.14 µM

— patent US8927717B1, “Thiochromeno[2,3-c]quinolin-12-one derivatives, preparation method and application thereof” (National Defense Medical Center, priority 2014, dated 2015)
